For assay [1], the target named is T1, hCA I (Homo sapiens, UniProt P00915).
T1 construct: gene CA1; cytosolic isoform
The assay is described as follows: stopped-flow CO2 hydration assay. It is filed as biochemical. From the text:
stopped-flow CO2 hydration assay on hCA I

Assay [2] deals with T2, hCA II (Homo sapiens, UniProt P00918).
T2 construct: gene CA2; cytosolic isoform
The assay is described as follows: stopped-flow CO2 hydration assay. The assay is classed as biochemical. From the text: (§1) stopped-flow CO2 hydration assay on hCA II

Assay [3] can be described thus: stopped-flow CO2 hydration assay. The assay is classed as biochemical, Homo sapiens. Conditions: read-out: KI (nM) ^* / hCA I.
Source text: as §1

Molecules are shown by their SMILES. Read-outs that look alike come from different tables or passages of the source.

T1 sequence (P00915 2-261): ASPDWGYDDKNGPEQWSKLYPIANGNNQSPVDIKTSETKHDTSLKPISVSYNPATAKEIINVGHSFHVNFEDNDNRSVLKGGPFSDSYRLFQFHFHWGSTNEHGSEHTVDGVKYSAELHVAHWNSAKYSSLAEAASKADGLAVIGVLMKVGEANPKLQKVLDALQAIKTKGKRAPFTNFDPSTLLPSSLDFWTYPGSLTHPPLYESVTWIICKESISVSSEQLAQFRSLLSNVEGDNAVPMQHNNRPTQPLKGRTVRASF

`CCOC(=O)c1cnc2ccccc2c1Nc1cccc(S(N)(=O)=O)c1` [6a, Ethyl 4-((3-sulphamoylphenyl)amino)quinoline-3-carboxylate]: the Ki amounted to 4230 nM in assay [1] and 223 nM in assay [2].

Turning to `CCOC(=O)c1cnc2ccc(C)cc2c1Nc1cccc(S(N)(=O)=O)c1` [6b, Ethyl 6-methyl-4-((3-sulphamoylphenyl)amino)quinoline-3-carboxylate], the Ki worked out at 6640 nM in assay [1] and 782 nM in assay [2].

In the case of `CCOC(=O)c1cnc2ccc(OC)cc2c1Nc1cccc(S(N)(=O)=O)c1` [6c, Ethyl 6-methoxy-4-((3-sulphamoylphenyl)amino)quinoline-3-carboxylate], the Ki was 966 nM in assay [1] and 175 nM in assay [2].

`CCOC(=O)c1cnc2ccc(Br)cc2c1Nc1cccc(S(N)(=O)=O)c1` [6d, Ethyl 6-bromo-4-((3-sulphamoylphenyl)amino)quinoline-3-carboxylate]: the values for the Ki in assay [1] and in assay [2] were 9090 nM and 3590 nM, respectively.

For `CCOC(=O)c1cnc2cc(Cl)c(F)cc2c1Nc1cccc(S(N)(=O)=O)c1` [6e, Ethyl 7-chloro-6-fluoro-4-((3-sulphamoylphenyl)amino)quinoline-3-carboxylate], the Ki in assay [1] was determined as 7600 nM; in assay [2] (CO2 […], […] Hepes pH […] Na2SO4, […] min preincubation at room temperature), 83.3 nM.

Turning to `CCOC(=O)c1cnc2cc(Cl)cc(Cl)c2c1Nc1cccc(S(N)(=O)=O)c1` [6f, Ethyl 5,7-dichloro-4-((3-sulphamoylphenyl)amino)quinoline-3-carboxylate], the Ki in assay [1] and in assay [3] was above 10000 nM in each case.

Regarding `CCOC(=O)c1cnc2cc(Cl)c(F)cc2c1Nc1cccc(S(=O)(=O)NC)c1` [compound 11, Ethyl 7-chloro-6-fluoro-4-((3-(N-methylsulphamoyl)phenyl)amino)quinoline-3-carboxylate], the Ki in assay [1] and in assay [3] was above 10000 nM throughout.

The values are drawn from publication PMC6713088, “Synthesis and biological evaluation of novel 3-(quinolin-4-ylamino)benzenesulfonamides as carbonic anhydrase isoforms I and II inhibitors” (Journal of Enzyme Inhibition and Medicinal Chemistry, 2019).
